The values below come from ChEMBL document CHEMBL1614631, “Comparative evaluation of oral systemic exposure of 56 xenobiotics in rat, dog, monkey and human” (Xenobiotica, 2005).

A short description of series [1]: Dose normalised AUC in rat after po administration. The note with it: in vivo.
Series [2] is described as follows: Dose normalised AUC in dog after po administration. The conditions noted are these: in vivo.
Series [3] is described as follows: Dose normalised AUC in monkey after po administration. The conditions noted are these: macaca, in vivo.
The nature of series [4]: Dose normalised AUC in human after po administration. The conditions noted are these: in vivo.

Regarding `O=C(O)CCc1nc(-c2ccccc2)c(-c2ccccc2)o1` [OXAPROZIN], the DNAUC in series [1] was 0.04 kg·min/L; in series [2], 3.2 kg·min/L; in series [3], 2.85 kg·min/L; in series [4], 9.07 kg·min/L.
On the same counts, the results for `CCn1cc(C(=O)O)c(=O)c2cc(F)c(N3CCN(C)CC3)cc21` [PEFLOXACIN] are 67.2 kg·min/L, 120 kg·min/L, 259.2 kg·min/L and 505.26 kg·min/L.
On the same counts, the results for `Cc1nc(=O)c(C#N)c(NCc2cccnc2)[nH]1` [PELRINONE] are 20 kg·min/L, 84 kg·min/L, 39.2 kg·min/L and 152.38 kg·min/L.
The like results for `CC(C)NCC(O)COc1cccc2ccccc12` (stereo not given) [PROPRANOLOL] were, in that order, 37.8 kg·min/L, 8.32 kg·min/L, 1.32 kg·min/L and 17.33 kg·min/L.
As to `Cc1cccc(C)c1NC(=O)NCCCNC(C)C` [RECAINAM], the DNAUC in series [1] worked out at 6.3 kg·min/L; in series [2], 72.4 kg·min/L; in series [3], 48 kg·min/L; in series [4] it was 98.57 kg·min/L.
For `CC(C)(C)S(=O)(=O)C[C@@H](Cc1ccccc1)C(=O)N[C@@H](Cc1cnc[nH]1)C(=O)N[C@@H](CC1CCCCC1)[C@@H](O)[C@@H](O)C1CC1` [REMIKIREN], the DNAUC turned out to be 0.25 kg·min/L in series [1], 0.63 kg·min/L in series [2], 0.14 kg·min/L in series [3] and 0.2 kg·min/L in series [4].
On the same counts, the results for `CC(C)c1nc(CN(C)C(=O)N[C@H](C(=O)N[C@@H](Cc2ccccc2)C[C@H](O)[C@H](Cc2ccccc2)NC(=O)OCc2cncs2)C(C)C)cs1` [RITONAVIR] are 41.59 kg·min/L, 101.08 kg·min/L, 27.18 kg·min/L and 370.17 kg·min/L.
For the compound `COc1nccc(-c2c(-c3ccc(F)cc3)ncn2C2CCNCC2)n1` [SB-242235], the DNAUC in series [1] amounted to 37.61 kg·min/L; in series [2] it was 147.59 kg·min/L; in series [3], 115.9 kg·min/L; in series [4], 141 kg·min/L.
On the same counts, the results for `CN1C(C(=O)Nc2nccs2)=C(O)c2ccccc2S1(=O)=O` [SUDOXICAM] are 4415.2 kg·min/L, 5554 kg·min/L, 3821.3 kg·min/L and 8161.43 kg·min/L.
As to `CC(C(=O)O)c1ccc(C(=O)c2cccs2)cc1` (stereo not given) [SUPROFEN], the DNAUC in series [1] was 320 kg·min/L; in series [2], 1108 kg·min/L; in series [3], 355 kg·min/L; in series [4], 619.76 kg·min/L.
On the same counts, the results for `O=P(O)(O)C(Sc1ccc(Cl)cc1)P(=O)(O)O` [TILUDRONIC ACID] are 37.2 kg·min/L, 129.6 kg·min/L, 171.6 kg·min/L and 286.32 kg·min/L.
On the same counts, the results for `Cc1c(C)c2c(c(C)c1O)CCC(C)(COc1ccc(CC3SC(=O)NC3=O)cc1)O2` (stereo not given) [TROGLITAZONE] are 13.44 kg·min/L, 61.2 kg·min/L, 34.08 kg·min/L and 80.71 kg·min/L.
On the same counts, the results for `N[C@@H]1[C@H]2CN(c3nc4c(cc3F)c(=O)c(C(=O)O)cn4-c3ccc(F)cc3F)C[C@@H]12` [TROVAFLOXACIN] are 51 kg·min/L, 44.25 kg·min/L, 120.6 kg·min/L and 540 kg·min/L.
`COc1ccc(C(CN(C)C)C2(O)CCCCC2)cc1` (stereo not given) [VENLAFAXINE]: the DNAUC in series [1] came to 1.97 kg·min/L; in series [2] it was 48 kg·min/L; in series [3], 1.8 kg·min/L; in series [4] it was 1 kg·min/L.
On the same counts, the results for `NS(=O)(=O)Cc1noc2ccccc12` [ZONISAMIDE] are 663 kg·min/L, 1458 kg·min/L, 2097 kg·min/L and 3030 kg·min/L.
